Experimental data reported in paper PMC9144936, “New Cu^+2 Complexes with N-Sulfonamide Ligands: Potential Antitumor, Antibacterial, and Antioxidant Agents” (Molecules, 2022).

Tests used:
[1] = SOD mimetic activity, xanthine/xanthine oxidase system, NBT reduction; type: biochemical; conditions: pH 7.8, read-out: SOD-like activity IC50 (50% inhibition of NBT reduction)
Experimental: The SOD-like activities of complexes C1 and C2 were determined by an indirect method using the xanthine/xanthine oxidase system as the source of superoxide radicals. […] The IC50 value for native Cu2Zn2SOD is 0.006 μΜ. Thus, the IC50 values for both complexes are higher than the IC50 value for native Cu2Zn2SOD but are similar to those of complexes with related sulfonamide ligands presented in the literature.
The in vitro SOD mimetic activities of the complexes were assayed using the Oberley and Spitz method with some minor modifications. To generate a reproductible and constant flux of superoxide anions, xanthine (1.5 × 10^−4 M) and xanthine oxidase in 50 mM potassium phosphate buffer, pH = 7.8, were used. The superoxide anions were detected by the reduction of nitro blue tetrazolium (NBT) (5.6 × 10^−5 M) to blue formazane, which was determined spectrophotometrically at 560 nm. Different concentrations of the complexes (50, 25, 12.5, 2, and 0.2 μM) were prepared in 50 mM Tris-HCl buffer, pH = 7.8. For each determination, 0.1 mL complex solution + 0.1 mL xanthine oxidase were added to 0.8 mL of solution containing 0.69 mL potassium phosphate buffer (pH = 7.8), 0.025 mL NBT, and […]. The inhibition percentage of NBT reduction was used to determine the SOD activities of the complexes. The conversion of xanthine to uric acid was measured at 310 nm. The % inhibition of enzyme activity was subtracted from that of NBT. The IC50 values (the concentration of complex needed to yield 50% inhibition of NBT reduction) were determined from plots of % inhibition versus complex concentration. A Specord 200 Plus Spectrophotometer was used to perform the determinations and all reagents were purchased from Sigma-Aldrich.

HeLa, WM35, HFL1 cells = type: cell-based
Experimental: (§1) Three cell lines were used to determine the cytotoxicity of the complexes, a human cervical carcinoma line (HeLa), a human radical growth phase melanoma cell line (WM35), and a normal fibroblastic epithelial cell line (HFL1) using the MTT method. The cells were exposed to C1 and C2 complexes in different concentrations (50, 25, 12.5, 2, and 0.2 µM) at 24, 48, and 72 h. As positive contro, cisplatin was used.
This means that the cyytotoxicity is given by the complexes and that the chelation of the ligands with the copper ion is essential for the cytotoxicity of the complexes.
The cytotoxicity assays were performed using the MTT assay (3-(4,5-dimethylthiazol-2-yl)-2,5-diphenyl tetrazolium bromide-Sigma Aldrich). Cells were plated at a density of 1 × 10^5 cells/well in 96-well plates for 24 h in normal propagation media. The cultures were then exposed to C1 and C2 complexes in different concentrations (50, 25, 12.5, 2, and 0.2 µM). The complexes were first solubilized in DMSO (Sigma) and then serial dilutions in media were performed until the final concentration of DMSO was less than 1%. […] The cellular viability was determined using the MTT assay at 24, 48, and 72 h, respectively. Formazan particles were solubilized with DMSO and absorbances were determined at 550 nm using a microplate reader (Bio-Rad, Hercules, CA, USA). […]

[2] = test system: Pseudomonas aeruginosa ATCC 27853; assay: Disk diffusion method, P. aeruginosa; type: cell-based; set-up: key to Halo Zone Test, class symbol: R = resistant; conditions: 24 h, 37 °C
Excerpt: (§2) The disk diffusion method was used to determine the antibacterial activity of the C1 and C2 copper complexes on four reference microbial strains, two Gram-positive (Staphylococcus aureus and Bacillus cerreus) and two Gram-negative (Escherichia coli and Pseudomonas aeruginosa) strains. The disk diffusion method was used to determine the antibacterial activity of the C1 and C2 copper complexes. The method was adapted for the purposes of the current study, according to the standards developed by the Clinical and Laboratory Standards Institute. Four reference microbial strains, two Gram-positive (Staphylococcus aureus ATCC […] and Bacillus cerreus ATCC 14579) and two Gram-negative (Escherichia coli ATCC 10536 and Pseudomonas aeruginosa ATCC 27853) strains, were used for in vitro susceptibility testing. These reference microbial strains were obtained from the American Type Culture Collection (ATCC, Manassas, VA, USA). As positive controls, Amoxicillin (Oxoid Ltd., Basingstoke, UK) and Norfloxacin (Sigma-Aldrich) were used. For each of the four species, an initial suspension of bacterial cultures was inoculated on nutrient agar plates (Merck KGaA, Darmstadt, Germany), incubated for 24 h at 37 ± 2 °C and resuspended in a physiological saline buffer to a […] concentration (on a 0.5 McFarland scale), and further inoculated on Muëller Hinton agar plates (Merck KGaA, Darmstadt, Germany). […] After inoculation, the medium surface was dried and 8 wells were radially drilled 1.5 cm from the outer edge, 3 cm apart. From aliquot samples of 1 mg/mL of each copper complex dissolved in DMSO and incorporated in sterile liquid medium, 5 μL was placed in each of the 8 wells and left for 30 min to diffuse into the agar plates. The plates were then incubated for 24 h at 37 ± 2 °C. Then, 25 μg Amoxicillin and 5 μg Norfloxacin served as a positive controls, while DMSO 0.75% was used as a negative control. Readings were conducted by measuring the diameter of the inhibition zone (Halo Zone Test, in mm). The germ sensitivity of the copper complexes was estimated by comparing the diameter of the inhibition area to that generated by the regular antibiotics with known inhibition values. […] All tests were triplicated, and the measured diameters of the inhibition zone were expressed (in mm) as mean ± standard deviation.

[3] = test system: Bacillus cerreus ATCC 14579; assay: Disk diffusion method, B. cerreus; type: cell-based; conditions: Bacillus, ATCC14579; complexes 5 µL of 1 mg/mL; 25 µg Amoxicillin, 5 µg Norfloxacin; 24 h, 37 °C; read-out: Halo Zone Test (diameter of the inhibition zone)
Excerpt: as §2

[4] = test system: Staphylococcus aureus ATCC 6538P; assay: Disk diffusion method, S. aureus; type: cell-based; conditions: Staphylococcus aureus, ATCC6538P; complexes 5 µL of 1 mg/mL; 25 µg Amoxicillin, 5 µg Norfloxacin; 24 h, 37 °C; read-out: Halo Zone Test (diameter of the inhibition zone)
Excerpt: as §2

[5] = test system: Escherichia coli ATCC 10536; assay: Disk diffusion method, E. coli; type: cell-based; conditions: Escherichia coli, ATCC10536; complexes 5 µL of 1 mg/mL; 25 µg Amoxicillin, 5 µg Norfloxacin; 24 h, 37 °C; read-out: Halo Zone Test (diameter of the inhibition zone)
Excerpt: as §2

[6] = test system: human cervical carcinoma line (HeLa); assay: MTT cytotoxicity assay, HeLa; type: cell-based; conditions: HeLa cells
Experimental: as §1
(§3) To determine the cytotoxicity of the copper complexes, three cell lines were used: a human cervical carcinoma line (HeLa), a human radical growth phase melanoma cell line (WM35), and a normal fibroblastic epithelial cell line (HFL1). The cell lines were obtained from ATCC (American Type Cell Collection, Manassas, VA 20110-2209, USA) and were maintained in DMEM (Sigma-Aldrich, Saint Louis, Missouri, USA) supplemented with 10% fetal bovine serum (Hyclone), 1 mM glutamine (Sigma-Aldrich), and 1% antibiotic antimycotic 100× (Sigma-Aldrich). The cells were cultured at 37 °C in an atmosphere of 5% CO2 and 95% relative humidity.
(§4) The cytotoxicity assays were performed using the MTT assay (3-(4,5-dimethylthiazol-2-yl)-2,5-diphenyl tetrazolium bromide-Sigma Aldrich). Cells were plated at a density of 1 × 10^5 cells/well in 96-well plates for 24 h in normal propagation media. The cultures were then exposed to C1 and C2 complexes in different concentrations (50, 25, 12.5, 2, and 0.2 µM). The complexes were first solubilized in DMSO (Sigma) and then serial dilutions in media were performed until the final concentration of DMSO was less than 1%. As a positive control, cisplatin (Ebewe Pharma Ges.m.b.H. Nfg. KG, Austria) was used, in the same concentrations as the complexes. As a negative control, cell lines cultivated in normal expansion medium with the same amount of DMSO added were used. The cellular viability was determined using the MTT assay at 24, 48, and 72 h, respectively. Formazan particles were solubilized with DMSO and absorbances were determined at 550 nm using a microplate reader (Bio-Rad, Hercules, CA, USA). The cytotoxic activity, expressed as IC50 values representing the complex solution required to inhibit 50% of the cell proliferation, were calculated from the calibration curve by nonlinear regression. Each experiment was carried out in triplicate.

[7] = test system: human radical growth phase melanoma cell line (WM35); assay: MTT cytotoxicity assay, WM35; type: cell-based; conditions: WM35 cells, MTT
Experimental: as §1, §3, §4

[8] = test system: normal fibroblastic epithelial cell line (HFL1); assay: MTT cytotoxicity assay, HFL1; type: cell-based; conditions: HFL1 cells
Experimental: as §1, §3, §4

## Cu2Zn2SOD: native Cu2Zn2 superoxide dismutase enzyme, comparison for SOD-like activity
[1]
  IC50: 0.006 µM

## CCc1nnc(NS(=O)(=O)c2cccc3ccccc23)s1 [HL2, N-(5-ethyl-[1,3,4]–thiadiazole–2-yl)-naphtalenesulfonamide]
HeLa, WM35, HFL1 cells
  cytotoxicity of the free ligands: no significant cytotoxicity

## Cc1ccc(-c2nnc(NS(=O)(=O)c3cccc4ccccc34)s2)cc1 [HL1, N-(5-(4-methylphenyl)-[1,3,4]–thiadiazole–2-yl)-naphtalenesulfonamide]
HeLa, WM35, HFL1 cells
  cytotoxicity of the free ligands: no significant cytotoxicity

## CCn1cc(C(=O)O)c(=O)c2cc(F)c(N3CCNCC3)cc21 [Norfloxacin, reference compound]
[2]; Pseudomonas aeruginosa, ATCC27853, complexes 5 µL of 1 mg/mL, 5 µg Norfloxacin, read-out: Halo Zone Test (diameter of the inhibition zone)
  zone of inhibition at 1000 µg/mL: 25 ± 0.24 mm
[3]
  zone of inhibition at 1000 µg/mL: 18 ± 0.19 mm
[4]
  zone of inhibition at 1000 µg/mL: 16 ± 0.21 mm
[5]
  zone of inhibition at 1000 µg/mL: 20 ± 0.11 mm

## CC1(C)S[C@@H]2[C@H](NC(=O)[C@H](N)c3ccc(O)cc3)C(=O)N2[C@H]1C(=O)O [Amoxicillin, reference compound]
[2]; 25 µg Amoxicillin
  Halo Zone Test, class symbol: R
[3]
  zone of inhibition at 1000 µg/mL: 13 ± 0.22 mm
[4]
  zone of inhibition at 1000 µg/mL: 19 ± 0.14 mm
[5]
  zone of inhibition at 1000 µg/mL: 18 ± 0.09 mm

## N.N.[Cl][Pt][Cl] [Cisplatin, cisplatin, reference compound]
[6]; 24 h
  IC50: 21.03 ± 0.14 µM
[6]; 48 h
  IC50: 6.02 ± 0.19 µM
[6]; 72 h
  IC50: 2.39 ± 0.04 µM
[7]; 24 h
  IC50: 26.1 ± 0.43 µM
[7]; 48 h
  IC50: 11.15 ± 0.09 µM
[7]; 72 h
  IC50: 5.98 ± 0.03 µM
[8]; 24 h
  IC50: 13.2 ± 0.89 µM
[8]; 48 h
  IC50: 3.99 ± 0.22 µM
[8]; 72 h
  IC50: 1.18 ± 0.13 µM
